Results as given in ChEMBL document CHEMBL3885861, “Open TG-GATES”.

Species on record: Rattus norvegicus
Assay: Open TG-GATES - Regimen: Single
Assay type: toxicity, organism-based, Sprague-Dawley
Design: regimen Single, gender Male, age 6 weeks
Details: in vivo, po, route gavage; for WBC / APTT / Bas / Eos / Fbg / Hb / Ht / Lym / MCH / MCHC / MCV / Mono / Neu / PT / Plat / RBC / Ret: tissue Blood; for KIDNEY_L / KIDNEY_R / KIDNEY_TOTAL: tissue Kidney; for LIVER: tissue Liver; for A/G / ALP / ALT / AST / BUN / CRE / Ca / Cl / DBIL / GLC / IP / K / LDH / Na / PL / RALB / TBIL / TC / TG / TP / gamma-GTP: tissue Plasma
[1] = 2 mg/kg, 9 h, dose level Middle
[2] = 2 mg/kg, 24 h, dose level Middle

What does the source list for `COc1ccc2c(c1)c(CC(=O)O)c(C)n2C(=O)c1ccc(Cl)cc1` [INDOMETHACIN]?
WBC [1]: 114.3 x10_2/uL; KIDNEY_L [1]: 0.9 g; KIDNEY_R [1]: 0.9 g; KIDNEY_TOTAL [1]: 1.8 g; LIVER [1]: 8.3 g; A/G [1]: 2.7; ALP [1]: 944 IU/L; ALT [1]: 35.2 IU/L; AST [1]: 65.6 IU/L; BUN [1]: 14.2 mg/dL; CRE [1]: 0.5 mg/dL; Ca [1]: 10.2 mg/dL; Cl [1]: 106.8 meq/L; DBIL [1]: 0.01 mg/dL; GLC [1]: 199.6 mg/dL; IP [1]: 10.5 mg/dL; K [1]: 5 meq/L; LDH [1]: 80.8 IU/L; Na [1]: 138.2 meq/L; PL [1]: 125.8 mg/dL; RALB [1]: 3.9 g/dL; TBIL [1]: 0.5 mg/dL; TC [1]: 72.2 mg/dL; TG [1]: 35.4 mg/dL; TP [1]: 5.3 g/dL; gamma-GTP [1]: 1.8 IU/L; TERMINAL_BW [2]: 209.2 g; APTT [2]: 16.1 s; Bas [2]: 0%; Eos [2]: 0.8%; Fbg [2]: 204.6 mg/dL; Hb [2]: 13.4 g/dL; Ht [2]: 40.7%; Lym [2]: 80.6%; MCH [2]: 21.5 pg; MCHC [2]: 33%; MCV [2]: 65 fL; Mono [2]: 8.8%; Neu [2]: 10.2%; PT [2]: 12.1 s; Plat [2]: 96.4 x10_4/uL; RBC [2]: 626.8 x10_4/ul; Ret [2]: 8.6%; WBC [2]: 112.4 x10_2/uL; KIDNEY_L [2]: 0.9 g; KIDNEY_R [2]: 0.9 g; KIDNEY_TOTAL [2]: 1.9 g; LIVER [2]: 10.1 g; A/G [2]: 2.4; ALP [2]: 1232.8 IU/L; ALT [2]: 38.2 IU/L; AST [2]: 70.6 IU/L; BUN [2]: 16.4 mg/dL; CRE [2]: 0.5 mg/dL; Ca [2]: 10.4 mg/dL; Cl [2]: 106.4 meq/L; DBIL [2]: 0.004 mg/dL; GLC [2]: 195.4 mg/dL; IP [2]: 8.1 mg/dL; K [2]: 4.9 meq/L; LDH [2]: 83.6 IU/L; Na [2]: 138.4 meq/L; PL [2]: 140.6 mg/dL; RALB [2]: 3.9 g/dL; TBIL [2]: 0.3 mg/dL; TC [2]: 75.4 mg/dL; TG [2]: 95.2 mg/dL; TP [2]: 5.6 g/dL; gamma-GTP [2]: 1.4 IU/L; TERMINAL_BW (5 mg/kg, 3 h, dose level High): 201.4 g; TERMINAL_BW (5 mg/kg, 3 h, dose level Low): 224.1 g; APTT (5 mg/kg, 3 h, dose level High): 16.5 s; Bas (5 mg/kg, 3 h, dose level High): 0%; Eos (5 mg/kg, 3 h, dose level High): 0.2%; Fbg (5 mg/kg, 3 h, dose level High): 211 mg/dL; Hb (5 mg/kg, 3 h, dose level High): 13.6 g/dL; Ht (5 mg/kg, 3 h, dose level High): 41.1%; Lym (5 mg/kg, 3 h, dose level High): 78.4%; MCH (5 mg/kg, 3 h, dose level High): 21.5 pg; MCHC (5 mg/kg, 3 h, dose level High): 33.3%; MCV (5 mg/kg, 3 h, dose level High): 64.8 fL; Mono (5 mg/kg, 3 h, dose level High): 9%; Neu (5 mg/kg, 3 h, dose level High): 12.4%; PT (5 mg/kg, 3 h, dose level High): 12.5 s; Plat (5 mg/kg, 3 h, dose level High): 108.6 x10_4/uL; RBC (5 mg/kg, 3 h, dose level High): 634.6 x10_4/ul; Ret (5 mg/kg, 3 h, dose level High): 8.9%; WBC (5 mg/kg, 3 h, dose level High): 130.2 x10_2/uL; APTT (5 mg/kg, 3 h, dose level Low): 18.2 s; Eos (5 mg/kg, 3 h, dose level Low): 0.8%; Fbg (5 mg/kg, 3 h, dose level Low): 222.6 mg/dL; Hb (5 mg/kg, 3 h, dose level Low): 13.9 g/dL; Ht (5 mg/kg, 3 h, dose level Low): 38%; Lym (5 mg/kg, 3 h, dose level Low): 79.4%; MCH (5 mg/kg, 3 h, dose level Low): 22.1 pg; MCHC (5 mg/kg, 3 h, dose level Low): 36.6%; MCV (5 mg/kg, 3 h, dose level Low): 60.4 fL; Mono (5 mg/kg, 3 h, dose level Low): 2.8%; Neu (5 mg/kg, 3 h, dose level Low): 15.6%; PT (5 mg/kg, 3 h, dose level Low): 11.7 s; Plat (5 mg/kg, 3 h, dose level Low): 115.7 x10_4/uL; RBC (5 mg/kg, 3 h, dose level Low): 629.4 x10_4/ul; Ret (5 mg/kg, 3 h, dose level Low): 7.6%; WBC (5 mg/kg, 3 h, dose level Low): 76.1 x10_2/uL; KIDNEY_L (5 mg/kg, 3 h, dose level High): 0.9 g; KIDNEY_R (5 mg/kg, 3 h, dose level High): 1 g; KIDNEY_TOTAL (5 mg/kg, 3 h, dose level High): 1.9 g; KIDNEY_L (5 mg/kg, 3 h, dose level Low): 1 g; KIDNEY_TOTAL (5 mg/kg, 3 h, dose level Low): 2.1 g; LIVER (5 mg/kg, 3 h, dose level High): 9.2 g; LIVER (5 mg/kg, 3 h, dose level Low): 9.6 g; A/G (5 mg/kg, 3 h, dose level High): 1.5; ALP (5 mg/kg, 3 h, dose level High): 1085.6 IU/L; ALT (5 mg/kg, 3 h, dose level High): 42.6 IU/L; AST (5 mg/kg, 3 h, dose level High): 70.2 IU/L; BUN (5 mg/kg, 3 h, dose level High): 11 mg/dL; CRE (5 mg/kg, 3 h, dose level High): 0.4 mg/dL; Ca (5 mg/kg, 3 h, dose level High): 10.5 mg/dL; Cl (5 mg/kg, 3 h, dose level High): 105.2 meq/L; DBIL (5 mg/kg, 3 h, dose level High): 0.034 mg/dL; GLC (5 mg/kg, 3 h, dose level High): 191 mg/dL; IP (5 mg/kg, 3 h, dose level High): 9.5 mg/dL; K (5 mg/kg, 3 h, dose level High): 5 meq/L; LDH (5 mg/kg, 3 h, dose level High): 172 IU/L; Na (5 mg/kg, 3 h, dose level High): 137 meq/L; PL (5 mg/kg, 3 h, dose level High): 126.2 mg/dL; RALB (5 mg/kg, 3 h, dose level High): 3.6 g/dL; TBIL (5 mg/kg, 3 h, dose level High): 0.3 mg/dL; TC (5 mg/kg, 3 h, dose level High): 71.8 mg/dL; TG (5 mg/kg, 3 h, dose level High): 55 mg/dL; TP (5 mg/kg, 3 h, dose level High): 6.1 g/dL; gamma-GTP (5 mg/kg, 3 h, dose level High): 1.2 IU/L; A/G (5 mg/kg, 3 h, dose level Low): 1.6; ALP (5 mg/kg, 3 h, dose level Low): 872.4 IU/L; ALT (5 mg/kg, 3 h, dose level Low): 37.8 IU/L; AST (5 mg/kg, 3 h, dose level Low): 76.4 IU/L; BUN (5 mg/kg, 3 h, dose level Low): 10.8 mg/dL; Cl (5 mg/kg, 3 h, dose level Low): 103 meq/L; DBIL (5 mg/kg, 3 h, dose level Low): 0.068 mg/dL; GLC (5 mg/kg, 3 h, dose level Low): 187.6 mg/dL; IP (5 mg/kg, 3 h, dose level Low): 9.3 mg/dL; K (5 mg/kg, 3 h, dose level Low): 4.2 meq/L; LDH (5 mg/kg, 3 h, dose level Low): 213 IU/L; Na (5 mg/kg, 3 h, dose level Low): 140.8 meq/L; PL (5 mg/kg, 3 h, dose level Low): 145.6 mg/dL; RALB (5 mg/kg, 3 h, dose level Low): 3.3 g/dL; TBIL (5 mg/kg, 3 h, dose level Low): 0.1 mg/dL; TC (5 mg/kg, 3 h, dose level Low): 85.4 mg/dL
